≈ marks a conversion by molar mass, not a printed value. Read-outs that look alike come from different tables or passages of the source.
Legend:
[1] = molecular target: human (hACC2) (Homo sapiens, UniProt O00763); experiment: In vitro ACC inhibition assay (ADP-Glo), hACC2; type: biochemical; conditions: Table 2b, additional results, 5 nM ACC2, 20 μM ATP, 20 μM acetyl-CoA
Method: The detailed procedure is as follows. […] 10 μL ADP glo reagent was added. […] 20 μL kinase detection reagent was added.

[2] = test system: C. albicans; experiment: Antifungal Activity Assay (broth microtiter MIC), C. albicans; type: cell-based, Candida albicans; conditions: for MIC: Candida albicans, ATCC90028, 48 h
Method in brief: (§1)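 CLSI M27-A3 microdilution; RPMI 1640+MOPS; 2.5×10^3 CFU/mL final inoculum; cultures from Sabouraud dextrose agar, 35° C overnight; compound working solution 128 μg/mL from 1 mg/mL DMSO stock; visual MIC at 48 h vs growth control.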

[3] = test system: C. krusei; experiment: Antifungal Activity Assay (broth microtiter MIC), C. krusei; type: cell-based, Candida krusei; conditions: for MIC: Pichia kudriavzevii, ATCC6258, 48 h
Method in brief: as §1

[4] = test system: C. parapsilosis; experiment: Antifungal Activity Assay (broth microtiter MIC), C. parapsilosis; type: cell-based, Candida parapsilosis; conditions: for MIC: Lodderomyces parapsilosis, ATCC22019, 48 h
Method in brief: as §1

[5] = test system: Botrtyis cinerea (Bc); experiment: Growth inhibition assay of fungal pathogens, Bc; type: cell-based; conditions: growth inhibition at 48 hours vs 2% DMSO control; for IC90: 48 h
Method in brief: (§2)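 Read-out: OD600 plus visual rating at 24 and 48 h, blank (media + 2% DMSO) subtracted. Percent inhibition was derived at 48 h versus the 2% DMSO control. Spores were grown in 17% V8 broth with compound at 50/10/2 or 2/0.4/0.08 ppm final.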

[6] = test system: Collectotrichum graminicola (Cg); experiment: Growth inhibition assay of fungal pathogens, Cg; type: cell-based; conditions: growth inhibition at 48 hours vs 2% DMSO control; for IC90: 48 h
Method in brief: as §2

[7] = test system: Diplodia maydis (Dm); experiment: Growth inhibition assay of fungal pathogens, Dm; type: cell-based; conditions: growth inhibition at 48 hours vs 2% DMSO control; for IC90: Stenocarpella maydis, 48 h
Method in brief: as §2

[8] = test system: Fusarium moniliforme (Fm); experiment: Growth inhibition assay of fungal pathogens, Fm; type: cell-based; conditions: for IC90: Fusarium verticillioides, 48 h, read-out: Concentration at 90% Inhibition Fm
Method in brief: as §2

[9] = test system: Fusarium virguliforme (Fv); experiment: Growth inhibition assay of fungal pathogens, Fv; type: cell-based; conditions: for IC90: 48 h
Method in brief: as §2

[10] = test system: Phytophthora capsici (Pc); experiment: Growth inhibition assay of fungal pathogens, Pc; type: cell-based; conditions: for IC90: 48 h
Method in brief: as §2

[11] = test system: Rhizoctonia solani (Rs); experiment: Growth inhibition assay of fungal pathogens, Rs; type: cell-based; conditions: for IC90: 48 h
[12] = test system: Septoria tritici (St); experiment: Growth inhibition assay of fungal pathogens, St; type: cell-based; conditions: growth inhibition at 48 hours vs 2% DMSO control; for IC90: Zymoseptoria tritici, 48 h
Method in brief: as §2

[13] = molecular target: fungal (fACC2) (UniProt Q00955); conditions: read-out: fACC2 (in vitro ACC2 Inhibition Assay, IC50); Table 2b, additional results; ADP-Glo, 5 nM ACC2, 20 μM ATP, 20 μM acetyl-CoA
[14] = read-out: MIC, C. albicans ATCC 90028, Table 3b (additional results), 3 replicates, MIC recorded at 48 h
[15] = read-out: MIC, C. krusei ATCC 6258, Table 3b (additional results), 3 replicates, MIC recorded at 48 h
[16] = read-out: MIC, C. parapsilosis ATCC 22019, Table 3b (additional results), 3 replicates, MIC recorded at 48 h
[17] = read-out: Concentration at 90% Inhibition Bc, Botrtyis cinerea
[18] = read-out: Concentration at 90% Inhibition Cg, Collectotrichum graminicola
[19] = read-out: Concentration at 90% Inhibition Dm, Diplodia maydis
[20] = read-out: Concentration at 90% Inhibition Fv, Fusarium virguliforme, growth inhibition at 48 hours vs 2% DMSO control
[21] = read-out: Concentration at 90% Inhibition Pc, Phytophthora capsici, growth inhibition at 48 hours vs 2% DMSO control
[22] = read-out: Concentration at 90% Inhibition Rs, Rhizoctonia solani, mycelial plugs, growth inhibition at 48 hours vs 2% DMSO control
[23] = read-out: Concentration at 90% Inhibition St, Septoria tritici
[24] = Table 3b (additional results), 3 replicates, MIC recorded at 48 h
[25] = Fusarium moniliforme, growth inhibition at 48 hours vs 2% DMSO control
[26] = growth inhibition at 48 hours vs 2% DMSO control
[27] = Table 3b (additional results), ATCC 90028, 3 replicates, MIC recorded at 48 h, read-out: MIC, C. albicans ATCC 90028
[28] = Table 3b (additional results), ATCC 6258, 3 replicates, MIC recorded at 48 h, read-out: MIC, C. krusei ATCC 6258
[29] = Table 3b (additional results), ATCC 22019, 3 replicates, MIC recorded at 48 h, read-out: MIC, C. parapsilosis ATCC 22019
[30] = Botrtyis cinerea, read-out: Concentration at 90% Inhibition Bc
[31] = Collectotrichum graminicola, read-out: Concentration at 90% Inhibition Cg
[32] = Diplodia maydis, read-out: Concentration at 90% Inhibition Dm
[33] = growth inhibition at 48 hours vs 2% DMSO control, read-out: Concentration at 90% Inhibition Fv
[34] = growth inhibition at 48 hours vs 2% DMSO control, read-out: Concentration at 90% Inhibition Pc
[35] = mycelial plugs, growth inhibition at 48 hours vs 2% DMSO control, read-out: Concentration at 90% Inhibition Rs
[36] = Septoria tritici, read-out: Concentration at 90% Inhibition St

Sequence of human (hACC2) (O00763 whole entry): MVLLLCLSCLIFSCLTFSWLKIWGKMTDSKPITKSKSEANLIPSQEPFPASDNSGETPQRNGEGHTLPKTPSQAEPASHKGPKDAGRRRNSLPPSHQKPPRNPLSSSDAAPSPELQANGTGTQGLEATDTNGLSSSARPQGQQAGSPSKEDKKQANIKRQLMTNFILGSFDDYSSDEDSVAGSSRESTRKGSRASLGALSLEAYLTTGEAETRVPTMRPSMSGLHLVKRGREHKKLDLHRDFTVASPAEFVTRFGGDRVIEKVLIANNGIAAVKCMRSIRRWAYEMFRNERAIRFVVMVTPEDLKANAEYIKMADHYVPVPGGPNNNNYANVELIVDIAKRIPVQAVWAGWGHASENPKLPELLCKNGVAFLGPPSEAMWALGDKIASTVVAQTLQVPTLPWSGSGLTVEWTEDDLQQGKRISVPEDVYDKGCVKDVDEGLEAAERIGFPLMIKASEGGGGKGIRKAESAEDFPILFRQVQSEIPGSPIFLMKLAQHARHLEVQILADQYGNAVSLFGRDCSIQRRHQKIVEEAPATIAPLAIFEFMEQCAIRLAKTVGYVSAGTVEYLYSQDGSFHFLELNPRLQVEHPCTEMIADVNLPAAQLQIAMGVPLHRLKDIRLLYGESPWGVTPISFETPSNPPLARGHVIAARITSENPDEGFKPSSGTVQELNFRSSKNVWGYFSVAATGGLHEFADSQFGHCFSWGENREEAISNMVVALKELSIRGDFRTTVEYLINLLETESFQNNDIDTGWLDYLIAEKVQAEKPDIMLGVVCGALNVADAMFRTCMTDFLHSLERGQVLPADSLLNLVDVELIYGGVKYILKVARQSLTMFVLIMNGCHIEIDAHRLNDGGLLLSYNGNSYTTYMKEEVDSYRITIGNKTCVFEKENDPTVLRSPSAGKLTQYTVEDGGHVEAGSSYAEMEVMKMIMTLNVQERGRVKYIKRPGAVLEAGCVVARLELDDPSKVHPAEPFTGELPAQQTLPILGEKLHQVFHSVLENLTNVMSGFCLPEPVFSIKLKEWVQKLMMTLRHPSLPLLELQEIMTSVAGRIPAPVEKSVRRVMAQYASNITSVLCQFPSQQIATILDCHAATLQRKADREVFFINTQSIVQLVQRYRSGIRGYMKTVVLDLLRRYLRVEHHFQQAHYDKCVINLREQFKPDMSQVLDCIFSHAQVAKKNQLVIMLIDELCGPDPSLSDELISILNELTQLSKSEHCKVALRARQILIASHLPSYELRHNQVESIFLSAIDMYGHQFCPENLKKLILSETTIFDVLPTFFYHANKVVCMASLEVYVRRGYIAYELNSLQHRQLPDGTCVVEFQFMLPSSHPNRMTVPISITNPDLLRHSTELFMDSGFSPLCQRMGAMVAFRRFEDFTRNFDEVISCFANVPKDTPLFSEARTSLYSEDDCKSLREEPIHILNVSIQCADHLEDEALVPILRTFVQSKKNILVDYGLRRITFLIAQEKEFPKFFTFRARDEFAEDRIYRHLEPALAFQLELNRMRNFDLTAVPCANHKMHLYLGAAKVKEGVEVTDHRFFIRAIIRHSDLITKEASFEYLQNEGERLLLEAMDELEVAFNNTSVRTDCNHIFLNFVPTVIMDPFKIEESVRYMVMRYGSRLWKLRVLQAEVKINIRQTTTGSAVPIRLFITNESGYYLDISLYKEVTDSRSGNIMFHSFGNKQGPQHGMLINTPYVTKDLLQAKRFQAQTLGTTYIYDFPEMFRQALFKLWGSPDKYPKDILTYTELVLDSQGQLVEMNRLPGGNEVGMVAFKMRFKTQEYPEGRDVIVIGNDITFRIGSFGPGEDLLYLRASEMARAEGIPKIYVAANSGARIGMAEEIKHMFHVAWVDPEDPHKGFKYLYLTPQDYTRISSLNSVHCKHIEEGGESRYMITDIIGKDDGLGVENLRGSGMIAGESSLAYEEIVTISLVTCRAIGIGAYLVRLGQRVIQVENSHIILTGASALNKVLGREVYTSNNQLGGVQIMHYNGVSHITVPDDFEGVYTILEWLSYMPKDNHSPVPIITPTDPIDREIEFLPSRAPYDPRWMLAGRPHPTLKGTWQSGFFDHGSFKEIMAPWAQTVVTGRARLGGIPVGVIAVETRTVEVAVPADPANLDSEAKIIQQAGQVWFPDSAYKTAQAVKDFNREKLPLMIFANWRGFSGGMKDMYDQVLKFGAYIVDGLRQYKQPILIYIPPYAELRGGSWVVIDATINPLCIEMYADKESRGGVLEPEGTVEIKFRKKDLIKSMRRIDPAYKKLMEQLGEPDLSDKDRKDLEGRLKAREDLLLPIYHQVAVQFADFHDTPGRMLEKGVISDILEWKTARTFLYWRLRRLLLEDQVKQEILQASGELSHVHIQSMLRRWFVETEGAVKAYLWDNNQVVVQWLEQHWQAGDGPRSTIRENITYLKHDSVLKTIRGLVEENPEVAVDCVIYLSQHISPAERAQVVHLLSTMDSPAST
Sequence of fungal (fACC2) (Q00955 whole entry): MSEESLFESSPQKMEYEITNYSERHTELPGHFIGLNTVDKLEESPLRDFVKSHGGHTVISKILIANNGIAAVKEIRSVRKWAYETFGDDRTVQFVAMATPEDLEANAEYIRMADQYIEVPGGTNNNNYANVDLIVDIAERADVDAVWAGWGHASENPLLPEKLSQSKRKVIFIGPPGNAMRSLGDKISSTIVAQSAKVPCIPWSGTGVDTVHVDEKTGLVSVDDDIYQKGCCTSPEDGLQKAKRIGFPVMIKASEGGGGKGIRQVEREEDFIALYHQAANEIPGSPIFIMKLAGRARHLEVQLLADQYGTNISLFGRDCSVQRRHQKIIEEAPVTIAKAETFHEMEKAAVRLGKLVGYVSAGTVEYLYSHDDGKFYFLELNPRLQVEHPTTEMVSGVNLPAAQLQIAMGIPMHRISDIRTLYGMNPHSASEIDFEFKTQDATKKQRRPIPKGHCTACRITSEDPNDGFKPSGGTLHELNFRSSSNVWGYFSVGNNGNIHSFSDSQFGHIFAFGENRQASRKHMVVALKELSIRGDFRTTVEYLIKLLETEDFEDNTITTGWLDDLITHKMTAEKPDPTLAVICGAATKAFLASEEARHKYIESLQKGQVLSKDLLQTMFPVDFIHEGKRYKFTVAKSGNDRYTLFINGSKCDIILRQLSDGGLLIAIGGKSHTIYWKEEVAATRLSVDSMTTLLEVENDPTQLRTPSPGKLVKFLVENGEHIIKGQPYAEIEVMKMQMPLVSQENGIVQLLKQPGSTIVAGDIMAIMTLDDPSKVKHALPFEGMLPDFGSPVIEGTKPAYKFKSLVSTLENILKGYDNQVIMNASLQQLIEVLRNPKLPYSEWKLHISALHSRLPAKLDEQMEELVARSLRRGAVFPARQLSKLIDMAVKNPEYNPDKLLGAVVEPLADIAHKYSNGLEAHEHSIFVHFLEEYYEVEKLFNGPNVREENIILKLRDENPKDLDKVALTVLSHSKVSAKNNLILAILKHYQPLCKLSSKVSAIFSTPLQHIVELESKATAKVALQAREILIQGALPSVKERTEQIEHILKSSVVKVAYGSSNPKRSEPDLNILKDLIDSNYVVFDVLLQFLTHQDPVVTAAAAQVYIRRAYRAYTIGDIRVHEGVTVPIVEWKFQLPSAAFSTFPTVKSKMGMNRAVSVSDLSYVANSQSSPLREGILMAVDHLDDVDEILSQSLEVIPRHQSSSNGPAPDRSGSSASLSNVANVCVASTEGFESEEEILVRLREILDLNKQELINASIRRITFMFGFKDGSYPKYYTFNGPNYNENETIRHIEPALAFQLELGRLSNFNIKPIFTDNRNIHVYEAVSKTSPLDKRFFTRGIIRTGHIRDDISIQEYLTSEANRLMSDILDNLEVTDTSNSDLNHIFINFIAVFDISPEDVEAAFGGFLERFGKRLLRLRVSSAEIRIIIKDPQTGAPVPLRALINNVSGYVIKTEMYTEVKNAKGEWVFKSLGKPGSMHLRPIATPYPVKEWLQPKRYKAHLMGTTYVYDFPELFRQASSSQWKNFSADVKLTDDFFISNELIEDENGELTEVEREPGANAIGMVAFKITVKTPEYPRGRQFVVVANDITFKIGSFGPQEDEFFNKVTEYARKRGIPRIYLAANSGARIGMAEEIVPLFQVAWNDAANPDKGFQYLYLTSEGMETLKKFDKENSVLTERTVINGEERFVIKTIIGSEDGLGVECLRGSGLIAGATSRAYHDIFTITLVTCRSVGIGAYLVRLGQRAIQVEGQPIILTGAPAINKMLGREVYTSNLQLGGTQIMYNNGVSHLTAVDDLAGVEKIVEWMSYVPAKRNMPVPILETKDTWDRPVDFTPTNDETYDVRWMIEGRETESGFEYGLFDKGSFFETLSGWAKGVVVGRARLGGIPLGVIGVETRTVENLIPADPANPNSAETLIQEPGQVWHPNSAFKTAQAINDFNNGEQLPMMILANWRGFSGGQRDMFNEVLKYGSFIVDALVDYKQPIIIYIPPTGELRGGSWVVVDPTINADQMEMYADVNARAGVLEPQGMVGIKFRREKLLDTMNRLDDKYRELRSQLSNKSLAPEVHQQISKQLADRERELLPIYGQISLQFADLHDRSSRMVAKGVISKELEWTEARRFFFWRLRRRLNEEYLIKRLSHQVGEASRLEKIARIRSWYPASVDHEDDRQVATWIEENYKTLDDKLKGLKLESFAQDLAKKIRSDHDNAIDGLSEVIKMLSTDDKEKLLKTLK

SMILES: COc1ccc(F)cc1[C@@H](CCCO)Cn1c(=O)n(C(C)(C)C(=O)NC(C)C)c(=O)c2c(C)c(-n3nccn3)sc21 [Compound I-267]
- IC50 [1]: > 40 nM
- MIC [2, 14]: 0.25 to 1 µg/mL (≈ 0.426 to 1.7 µM)
- MIC [3, 15]: 0.06 to 0.249 µg/mL (≈ 0.102 to 0.424 µM)
- MIC [4, 16]: 0.25 to 1 µg/mL (≈ 0.426 to 1.7 µM)
- IC90 [5, 17]: > 50 µg/mL
- IC90 [6, 18]: > 50 µg/mL
- IC90 [7, 19]: > 50 µg/mL
- IC90 [8]: 2 µg/mL (≈ 3.41 µM)
- IC90 [9, 20]: 10 µg/mL (≈ 17 µM)
- IC90 [10, 21]: > 50 µg/mL
- IC90 [11, 22]: > 50 µg/mL
- IC90 [12, 23]: > 50 µg/mL
- IC50 [13]: 1 to 5 nM

SMILES: COc1ccc(F)cc1CCn1c(=O)n(C(C)(C)C(=O)NC(C)C)c(=O)c2c(C)c(-n3nccn3)sc21 [Compound I-268]
- IC50 [1]: 10 to 40 nM
- MIC, C. albicans ATCC 90028 [2, 24]: B (MIC of 1.01-2.0 μg/mL)
- MIC, C. krusei ATCC 6258 [3, 24]: A (MIC of 0.25-1.0 μg/mL)
- MIC, C. parapsilosis ATCC 22019 [4, 24]: B (MIC of 1.01-2.0 μg/mL)
- Concentration at 90% Inhibition Bc ([5]; Botrtyis cinerea): A (compound concentration of 0.4 ppm at 90% inhibition of fungal pathogens)
- Concentration at 90% Inhibition Cg ([6]; Collectotrichum graminicola): C (compound concentration of 10.0 ppm at 90% inhibition of fungal pathogens)
- Concentration at 90% Inhibition Dm ([7]; Diplodia maydis): C (compound concentration of 10.0 ppm at 90% inhibition of fungal pathogens)
- Concentration at 90% Inhibition Fm [8, 25]: A (compound concentration of 0.4 ppm at 90% inhibition of fungal pathogens)
- Concentration at 90% Inhibition Fv [9, 26]: AA (compound concentration of 0.08 ppm at 90% inhibition of fungal pathogens)
- Concentration at 90% Inhibition Pc [10, 26]: D (compound concentration of >50 ppm at 90% inhibition of fungal pathogens)
- Concentration at 90% Inhibition Rs ([11]; mycelial plugs, growth inhibition at 48 hours vs 2% DMSO control): B (compound concentration of 2.0 ppm at 90% inhibition of fungal pathogens)
- Concentration at 90% Inhibition St ([12]; Septoria tritici): D (compound concentration of >50 ppm at 90% inhibition of fungal pathogens)
- IC50 [13]: 1 to 5 nM

SMILES: Cc1c(-n2nccn2)sc2c1c(=O)n(C(C)(C)C(=O)NC(C)C)c(=O)n2C[C@H](OCCC#N)c1ccccc1O [Compound I-271]
- IC50 [1]: 5 to 10 nM
- MIC [2, 27]: 2.01 to 4 µg/mL (≈ 3.55 to 7.07 µM)
- MIC [3, 28]: 2.01 to 4 µg/mL (≈ 3.55 to 7.07 µM)
- MIC [4, 29]: 2.01 to 4 µg/mL (≈ 3.55 to 7.07 µM)
- IC90 [5, 30]: 10 µg/mL (≈ 17.7 µM)
- IC90 [6, 31]: > 50 µg/mL
- IC90 [7, 32]: > 50 µg/mL
- IC90 [8, 25]: 2 µg/mL (≈ 3.54 µM)
- IC90 [9, 33]: 2 µg/mL (≈ 3.54 µM)
- IC90 [10, 34]: > 50 µg/mL
- IC90 [11, 35]: 10 µg/mL (≈ 17.7 µM)
- IC90 [12, 36]: > 50 µg/mL
- IC50 [13]: 0.3 to 1 nM

SMILES: CC(=O)Oc1ccccc1[C@H](Cn1c(=O)n(C(C)(C)C(=O)NC(C)C)c(=O)c2c(C)c(-n3nccn3)sc21)OCCC#N [Compound I-272]
- IC50 [1]: 1 to 5 nM
- MIC [2, 27]: 1.01 to 2 µg/mL (≈ 1.66 to 3.29 µM)
- MIC [3, 28]: 1.01 to 2 µg/mL (≈ 1.66 to 3.29 µM)
- MIC [4, 29]: 1.01 to 2 µg/mL (≈ 1.66 to 3.29 µM)
- IC90 [5, 30]: 2 µg/mL (≈ 3.29 µM)
- IC90 [6, 31]: 2 µg/mL (≈ 3.29 µM)
- IC90 [7, 32]: 10 µg/mL (≈ 16.5 µM)
- IC90 [8, 25]: 0.08 µg/mL (≈ 0.132 µM)
- IC90 [9, 33]: 0.4 µg/mL (≈ 0.658 µM)
- IC90 [10, 34]: > 50 µg/mL
- IC90 [11, 35]: 2 µg/mL (≈ 3.29 µM)
- IC90 [12, 36]: > 50 µg/mL
- IC50 [13]: 0.3 to 1 nM

SMILES: CCOC(=O)c1ccccc1[C@H](Cn1c(=O)n(C(C)(C)C(=O)NC(C)C)c(=O)c2c(C)c(-n3nccn3)sc21)OCCC#N [Compound I-275]
- IC50 [1]: > 40 nM
- MIC [2, 14]: 2.01 to 4 µg/mL (≈ 3.23 to 6.43 µM)
- MIC [3, 15]: 2.01 to 4 µg/mL (≈ 3.23 to 6.43 µM)
- MIC [4, 16]: 2.01 to 4 µg/mL (≈ 3.23 to 6.43 µM)
- IC90 [5, 17]: 10 µg/mL (≈ 16.1 µM)
- IC90 [6, 18]: > 50 µg/mL
- IC90 [7, 19]: > 50 µg/mL
- IC90 [8]: 2 µg/mL (≈ 3.22 µM)
- IC90 [9, 20]: 2 µg/mL (≈ 3.22 µM)
- IC90 [10, 21]: > 50 µg/mL
- IC90 [11, 22]: 10 µg/mL (≈ 16.1 µM)
- IC90 [12, 23]: > 50 µg/mL
- IC50 [13]: 0.3 to 1 nM

SMILES: CCc1ccc(F)cc1CCn1c(=O)n(C(C)(C)C(=O)NC(C)C)c(=O)c2c(C)c(-n3nccn3)sc21 [Compound I-276]
- IC50 [1]: 5 to 10 nM
- MIC [2, 14]: 2.01 to 4 µg/mL (≈ 3.82 to 7.6 µM)
- MIC [3, 15]: 1.01 to 2 µg/mL (≈ 1.92 to 3.8 µM)
- MIC [4, 16]: 2.01 to 4 µg/mL (≈ 3.82 to 7.6 µM)
- IC90 [5, 17]: 2 µg/mL (≈ 3.8 µM)
- IC90 [6, 18]: 2 µg/mL (≈ 3.8 µM)
- IC90 [7, 19]: 2 µg/mL (≈ 3.8 µM)
- IC90 [8]: 0.08 µg/mL (≈ 0.152 µM)
- IC90 [9, 20]: 0.08 µg/mL (≈ 0.152 µM)
- IC90 [10, 21]: > 50 µg/mL
- IC90 [11, 22]: 10 µg/mL (≈ 19 µM)
- IC90 [12, 23]: > 50 µg/mL
- IC50 [13]: 0.3 to 1 nM

Reference: patent publication US10800791B2, “Triazole ACC inhibitors and uses thereof” (Gilead Apollo, LLC, priority 2015, dated 2020)
